The record followed here is patent publication US6685617B1, “Inhibitors of α4β1 mediated cell adhesion” (Pharmacia & Upjohn Company, priority 1998, dated 2004).

Assay [1] has as its target T1, α4β1 integrin (Jurkat cell adhesion to immobilized CS-1 derived peptide CLHPGEILDVPST) (Homo sapiens, UniProt P05556+P13612).
T1 construct: 100 μl of Jurkat cells (2.5×10^6 cells/ml) in DMEM plus BSA; host or cells: Jurkat T-cell line
Put plainly: Jurkat-CS-1 assay. The format is cell-based. The settings on record: Jurkat cells on CS-1 peptide coated plates; read-out: JK/CS-1 (Jurkat CS-1 Assay IC50 value range). The procedure, abridged:
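CS-1 peptide was SPDP-crosslinked onto HSA-coated plates and blocked with BSA. Jurkat cells (2.5×10^6 cells/ml) in DMEM/BSA were mixed with compound, generally at 100, 20, 5 and 1.25 μM, and allowed to adhere for 1 hr at 37° C. Bound cells were fixed, stained with toluidine blue and quantified by OD590.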

Assay [2] has as its target T2, α4β1 integrin (Jurkat T-cell adhesion to IL-1 stimulated endothelial cell monolayers) (Homo sapiens, UniProt P05556+P13612).
T2 construct: a T-cell line, Jurkat, known to express the α4β1 integrin; host or cells: Jurkat T-cell line
Put plainly: Jurkat-endothelial cell adhesion assay (Jurkat EC). Conditions: Jurkat cells on IL-1 stimulated human umbilical vein endothelial cells; read-out: JK/EC (Jurkat EC Assay IC50 value range). It is filed as cell-based. The procedure, abridged: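 Adhesion was expressed as percent of compound-free fluorescence after 20 min at 37° C (following 5 min settling on ice) of BCECF-loaded Jurkat T cells on washed HUVEC monolayers. The endothelium, passage 6 or lower, had received 0.1 ng/ml recombinant IL-1 for 4 hr at 37° C; compound was premixed with the T cells, typically at 100, 20, 5 and 1.25 μM.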

Structures can show the parent of a compound that is named as a salt. Where only a bound is given, the exact number is not on record here.

T1 sequence (P13612 34-1032): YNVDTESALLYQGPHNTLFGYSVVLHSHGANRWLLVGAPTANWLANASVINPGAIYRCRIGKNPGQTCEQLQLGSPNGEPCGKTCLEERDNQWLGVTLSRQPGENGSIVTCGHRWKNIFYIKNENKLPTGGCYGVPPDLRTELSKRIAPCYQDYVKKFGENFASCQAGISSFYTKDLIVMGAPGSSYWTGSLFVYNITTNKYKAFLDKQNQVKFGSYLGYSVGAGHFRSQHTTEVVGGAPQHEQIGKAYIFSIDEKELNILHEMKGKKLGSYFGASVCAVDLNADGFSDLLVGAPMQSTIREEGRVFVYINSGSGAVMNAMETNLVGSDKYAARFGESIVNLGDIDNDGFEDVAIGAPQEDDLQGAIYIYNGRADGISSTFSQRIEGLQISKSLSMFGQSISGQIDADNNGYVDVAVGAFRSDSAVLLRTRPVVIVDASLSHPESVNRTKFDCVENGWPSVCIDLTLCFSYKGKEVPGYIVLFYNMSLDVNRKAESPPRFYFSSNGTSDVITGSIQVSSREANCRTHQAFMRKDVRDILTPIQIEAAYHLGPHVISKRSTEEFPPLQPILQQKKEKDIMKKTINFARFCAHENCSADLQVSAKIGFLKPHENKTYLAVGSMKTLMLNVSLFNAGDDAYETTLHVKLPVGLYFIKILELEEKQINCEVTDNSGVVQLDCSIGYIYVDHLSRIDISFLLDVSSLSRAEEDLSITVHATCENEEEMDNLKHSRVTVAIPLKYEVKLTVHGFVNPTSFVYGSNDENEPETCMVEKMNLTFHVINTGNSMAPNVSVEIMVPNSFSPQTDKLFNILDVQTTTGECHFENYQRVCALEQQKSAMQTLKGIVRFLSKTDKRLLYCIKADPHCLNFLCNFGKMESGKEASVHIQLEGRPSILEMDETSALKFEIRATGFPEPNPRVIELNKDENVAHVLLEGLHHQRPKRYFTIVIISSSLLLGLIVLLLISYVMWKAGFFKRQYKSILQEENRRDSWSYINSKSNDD
T1 sequence (P05556 21-798): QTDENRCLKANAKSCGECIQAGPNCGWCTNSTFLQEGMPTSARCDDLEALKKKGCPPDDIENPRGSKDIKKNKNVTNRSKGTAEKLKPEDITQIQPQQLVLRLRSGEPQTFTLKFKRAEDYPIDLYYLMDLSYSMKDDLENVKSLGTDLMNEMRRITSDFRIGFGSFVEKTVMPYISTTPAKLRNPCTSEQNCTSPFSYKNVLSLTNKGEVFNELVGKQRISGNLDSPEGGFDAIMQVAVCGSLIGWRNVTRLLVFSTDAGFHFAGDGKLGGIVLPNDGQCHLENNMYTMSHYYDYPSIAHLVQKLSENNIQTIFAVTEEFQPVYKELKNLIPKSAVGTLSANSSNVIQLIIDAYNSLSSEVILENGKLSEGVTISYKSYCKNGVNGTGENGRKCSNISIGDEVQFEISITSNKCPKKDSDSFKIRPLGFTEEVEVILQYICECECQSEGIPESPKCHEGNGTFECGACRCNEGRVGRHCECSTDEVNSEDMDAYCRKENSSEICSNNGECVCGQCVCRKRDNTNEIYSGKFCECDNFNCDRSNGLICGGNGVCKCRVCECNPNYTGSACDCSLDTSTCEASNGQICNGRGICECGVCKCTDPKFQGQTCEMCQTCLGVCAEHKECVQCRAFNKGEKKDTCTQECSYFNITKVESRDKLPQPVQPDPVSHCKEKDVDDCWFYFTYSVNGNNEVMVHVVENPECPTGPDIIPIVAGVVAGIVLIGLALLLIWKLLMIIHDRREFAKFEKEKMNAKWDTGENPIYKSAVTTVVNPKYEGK
T2 sequence (P13612 34-1032): as the sequence (P13612 34-1032) above
T2 sequence (P05556 21-798): as the sequence (P05556 21-798) above

For the compound `COC(=O)[C@H](Cc1ccc(OCc2c(Cl)cccc2Cl)cc1)NC(=O)CCC1(C(=O)O)CCC(=O)N1` (stereo partly drawn) [Example 116, 2-[3-[[(1S)-1-[[4-[(2,6-Dichlorophenyl)methoxy]phenyl]methyl]-2-methoxy-2-oxoethyl]amino]-3-oxopropyl]-5-oxoproline], the figures for the IC50 in assay [1] and in assay [2] were not below 0.75 µM and not below 1 µM, respectively.
On to `O=C(CCC1(C(=O)O)CCC(=O)N1)N[C@@H](Cc1ccc(OCc2c(Cl)cccc2Cl)cc1)C(=O)O` (stereo partly drawn) [Example 117, 2-[3-[[(1S)-1-Carboxy-2-[4-[(2,6-dichlorophenyl)methoxy]phenyl]ethyl]amino]-3-oxo-propyl]-5-oxoproline], for which the IC50 in assay [1] is 0.05 to 0.75 µM; in assay [2] it was not below 1 µM.
Regarding `CC(C)(C)OC(=O)N1CSC[C@@H]1C(=O)N[C@@H](Cc1ccc(OCc2c(Cl)cccc2Cl)c(Cl)n1)C(=O)O` [Example 119, [S-(R*,R*)]-4-[[1-Carboxy-2-[[2-Chloro-3-[(2,6-dichlorophenyl)methoxy]-6-pyridyl]ethyl]amino]carbonyl]-3-thiazolidinecarboxylic Acid (1,1-Dimethylethyl)ester], the IC50 was not below 0.75 µM in assay [1] and not below 1 µM in assay [2].
Regarding `CC(C)(C)OC(=O)N1CSCC1C(=O)NC(Cc1ccc(OCc2c(Cl)cccc2Cl)cn1)C(=O)O` (stereo not drawn) [Example 121, [S-(R*,R*)]-4-[[[1-Carboxy-2-[3-[(2,6-dihlorophenyl)methoxy]-6-pyridyl]ethyl]amino]carbonyl]-3-thiazolidinecarboxylic Acid (1,1-Dimethylethyl)ester], the IC50 in assay [1] was 0.05 to 0.75 µM; in assay [2], not below 1 µM.
`CC(C)(C)OC(=O)N1CSC[C@@H]1C(=O)N[C@@H](Cc1ccc(N(C(=O)c2c(Cl)cccc2Cl)C(=O)c2c(Cl)cccc2Cl)nc1)C(=O)O` [Example 123, [S-(R*,R*)]-4-[[[[1-Carboxy-2-[2-[[bis-(2,6-dichlorobenzoyl)]amino]-5-pyridyl]]ethyl]amino]carbonyl]-3-thiazolidinecarboxylic Acid (1,1-Dimethylethyl)ester]: the IC50 in assay [1] was not below 0.75 µM; in assay [2], not below 1 µM.
For `COC(=O)[C@H](Cc1ccc(NC(=O)c2c(Cl)cccc2Cl)cc1)NC(=O)[C@@H]1COCN1C(=O)OCc1ccccc1` [Example 124, [S-(R*,R*)]-4-[[[1-[[4-[(2,6-Dichlorobenzoyl)amino]phenyl]methyl]-2-methoxy-2-oxoethyl]amino]carbonyl]-3-oxazolidinecarboxylic Acid 3-Phenylmethyl Ester], the IC50 was not below 0.75 µM in assay [1] and not below 1 µM in assay [2].
Turning to `O=C(Nc1ccc(C[C@H](NC(=O)[C@@H]2COCN2C(=O)OCc2ccccc2)C(=O)O)cc1)c1c(Cl)cccc1Cl` [Example 125, [S-(R*,R*)]-4-[[[1-Carboxy-2-[4-[(2,6-dichlorobenzoyl)amino]phenyl]ethyl]amino]-carbonyl]-3-oxazolidinecarboxylic Acid 3-Phenylmethyl Ester], the IC50 in assay [1] was in the range of 0.05 to 0.75 µM; in assay [2], 0.25 to 1 µM.
Turning to `COC(=O)[C@H](Cc1ccc(NC(=O)c2c(Cl)cccc2Cl)cc1)NC(=O)[C@H]1COCN1C(=O)OCc1ccccc1` [Example 126, [R-(R*S*)]-4-[[[1-[[4-[(2,6-Dichlorobenzoyl)amino]phenyl]methyl]-2-methoxy-2-oxoethyl]amino]carbonyl]-3-oxazolidinecarboxylic Acid 3-Phenylmethyl Ester], the IC50 is not below 0.75 µM in assay [1] and not below 1 µM in assay [2].
Consider `O=C(Nc1ccc(C[C@H](NC(=O)[C@H]2COCN2C(=O)OCc2ccccc2)C(=O)O)cc1)c1c(Cl)cccc1Cl` [Example 127, [R-(R*,S*)]-4-[[[1-Carboxy-2-[4-[(2,6-dichlorobenzoyl)amino]phenyl]ethyl]amino]-carbonyl]-3-oxazolidinecarboxylic Acid 3-(Phenylmethyl)ester], for which the IC50 in assay [1] was 0.05 to 0.75 µM; in assay [2] it was not above 0.25 µM.
Turning to `C[C@@H](c1ccccc1)N1[C@H](C(=O)O)C[C@H]1C(=O)N[C@@H](Cc1ccc(NC(=O)c2c(Cl)cccc2Cl)cc1)C(=O)O` [Example 129, [2S-[1(R*),2α,4β(R*)]]-4-[[[1-Carboxy-2-[4-[(2,6-dichlorobenzoyl)amino]phenyl]ethyl]-amino]carbonyl]-1-(1-phenylethyl)-2-azetidinecarboxylic Acid Dilithium Salt], the IC50 lay in the range of 0.05 to 0.75 µM in assay [1] and 0.25 to 1 µM in assay [2].
As for `C[C@H](c1ccccc1)N1[C@H](C(=O)O)C[C@H]1C(=O)N[C@@H](Cc1ccc(NC(=O)c2c(Cl)cccc2Cl)cc1)C(=O)O` [Example 137, [2S-[1(S*),2α,4β(R*)]]-4-[[[1-Carboxy-2-[4-[(2,6-dichlorobenzoyl)amino]phenyl]ethyl]-amino]carbonyl]-1-(1-phenylethyl)-2-azetidinecarboxylic Acid], the IC50 in assay [1] fell in the range of 0.05 to 0.75 µM; in assay [2], 0.25 to 1 µM.
With `CCOC(=O)N1[C@@H](C(=O)O)C[C@@H]1C(=O)N[C@@H](Cc1ccc(NC(=O)c2c(Cl)cccc2Cl)cc1)C(=O)O` [Example 141, [2R-(2α,4β(S*)]-4-[[[1-Carboxy-2-[4-[(2,6-dichlorobenzoyl)amino]phenyl]ethyl]-amino]-carbonyl]-1,2-azetidinedicarboxylic Acid 1-Ethyl Ester], the IC50 in assay [1] was 0.05 to 0.75 µM; in assay [2] it was not below 1 µM.
As to `CC(C)(C)OC(=O)N1CC[C@H]1C(=O)N[C@@H](Cc1ccc(NC(=O)c2c(Cl)cccc2Cl)cc1)C(=O)O` [Example 143, [2S-(R*,R*)]-2-[[[1-Carboxy-2-[4-[(2,6-dichlorobenzoyl)amino]phenyl]ethyl]amino]-carbonyl]-1-azetidinecarboxylic Acid 1-(1,1-Dimethylethyl)ester], the results for the IC50 in assay [1] and in assay [2] were 0.05 to 0.75 µM and not below 1 µM, respectively.
For `O=C(Nc1ccc(C[C@H](NC(=O)[C@@H]2CCN2)C(=O)O)cc1)c1c(Cl)cccc1Cl` [Example 144, N-[[(2S)-2-Azetidinyl]carbonyl]-4-[(2,6-dichlorobenzoyl)amino]-L-phenylalanine Trifluoroacetic acid Salt], the IC50 is 0.05 to 0.75 µM in assay [1] and not below 1 µM in assay [2].
`CC(C)(C)OC(=O)N1CC(C(=O)N[C@@H](Cc2ccc(NC(=O)c3c(Cl)cccc3Cl)cc2)C(=O)O)C1` [Example 146]: the IC50 is not below 0.75 µM in assay [1] and not below 1 µM in assay [2].
In the case of `O=C(Nc1ccc(C[C@H](NC(=O)C2CNC2)C(=O)O)cc1)c1c(Cl)cccc1Cl` [Example 147, N-[[3-Azetidinyl]carbonyl]-4-[(2,6-dichlorobenzoyl)amino]-L-phenylalanine, Trifluoroacetic Acid Salt], the IC50 in assay [1] is not below 0.75 µM; in assay [2] it was not below 1 µM.
In the case of `CCOC(=O)N1CSC[C@@H]1C(=O)N[C@@H](Cc1ccc(NC(=O)c2c(Cl)cccc2Cl)cc1)C(=O)OCc1ccncc1` [Example 154, [S-(R*,R*) 4-[[[1-[4-[(2,6-Dichlorobenzoyl)amino]phenyl]methyl]-2-[(4-pyridinyl)methoxy]-2-oxoethyl]amino]carbonyl]-3-thiazolidinecarboxylic Acid 3-Ethyl Ester], the IC50 in assay [1] is not above 0.05 µM; in assay [2], 0.25 to 1 µM.
On the same counts, the results for `O=C(O)CCC(=O)N1CCCCC1C(=O)N[C@@H](Cc1ccc(NC(=O)c2c(Cl)cccc2Cl)cc1)C(=O)O` (stereo partly drawn) [Example 167] are 0.05 to 0.75 µM and 0.25 to 1 µM.
